Results published in patent publication US9573913B2, “Cathepsin cysteine protease inhibitors” (Merck Sharp & Dohme Corp., priority 2013, dated 2017).

Key:
human cathepsin F = biological target: T1, human cathepsin F (Homo sapiens, UniProt Q9UBX1); assay: Cathepsin F assay (hCat F); assay type: biochemical; settings: Z-Phe-Arg-AMC substrate, pH 5.5, 15 min preincubation; read-out: hCat F (IP (nM))
T1 sequence (Q9UBX1 271-484): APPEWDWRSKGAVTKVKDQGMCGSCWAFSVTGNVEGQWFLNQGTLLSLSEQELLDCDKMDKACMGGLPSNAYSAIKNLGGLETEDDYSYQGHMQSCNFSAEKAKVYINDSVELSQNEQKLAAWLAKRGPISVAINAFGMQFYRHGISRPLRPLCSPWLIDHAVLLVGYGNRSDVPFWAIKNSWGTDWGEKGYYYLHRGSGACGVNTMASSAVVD
Method in brief: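 Enzyme (10 nM) was preincubated 15 min at room temperature with compounds (1/3 DMSO dilution series, 500–0.025 μM) in 50 mM MES pH 5.5, 2.5 mM EDTA, 2.5 mM DTT, 10% DMSO. Z-Phe-Arg-AMC (8 μM) was added and AMC fluorescence (Ex 360/Em 460 nm) followed for 20 min. % inhibition was fitted to dose-response curves.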

human cathepsin K = human cathepsin K (UniProt P43236); assay: Cathepsin K Assay (hrbCat K); assay type: biochemical; settings: Z-Leu-Arg-AMC substrate, pH 5.5, 15 min preincubation; read-out: hrbCat K (IP (nM))
Method in brief: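 Human cathepsin K (0.4 nM) was preincubated 15 min at room temperature with compound in 50 mM MES pH 5.5, 2.5 mM EDTA, 2.5 mM DTT and 10% DMSO. Inhibition was fitted to a dose-response model.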

SMILES | IC50 (human cathepsin F) [nM] | IC50 (human cathepsin K) [nM]
Cc1ncc(-c2nc([C@@H]3CC[C@H](F)C[C@H]3C(=O)NC3(C#N)CC3)c(-c3ccc(N4CCS(=O)(=O)CC4)cc3)s2)s1 [Example 128, (1R,2R,5S)-N-(1-cyanocyclopropyl)-2-(5-(4-(1,1-dioxidothiomorpho-lino)phenyl)-2′-methyl-[2,5′-bithiazol]-4-yl)-5-fluorocyclohexane-carboxamide] | ≥ 10000 | 1.8
C[C@@H](C#N)NC(=O)[C@@H]1C[C@@H](F)CC[C@H]1c1nc(-c2ccc(F)cn2)sc1-c1ccc(N2CCS(=O)(=O)CC2)cc1 [Example 130, (1R,2R,5S)-N-((S)-1-cyanoethyl)-2-(5-(4-(1,1-dioxidothiomorpho-lino)phenyl)-2-(5-fluoropyridin-2-yl)thiazol-4-yl)-5-fluorocyclohexane-carboxamide] | 1000 | 0.9
CS(=O)(=O)c1ccc(-c2sc(-c3cccnc3)nc2[C@@H]2CCCC[C@H]2C(=O)NC2(C#N)CC2)cc1 [Example 131, (1R,2R)-N-(1-cyanocyclopropyl)-2-(5-(4-(methylsulfonyl)phenyl)-2-(pyridin-3-yl)thiazol-4-yl)cyclohexane-carboxamide] | 1790 | 39.7
N#CC1(NC(=O)[C@@H]2CCCC[C@H]2c2nc(-c3cccc(C(F)(F)F)n3)sc2-c2ccc(N3CCS(=O)(=O)CC3)cc2)CC1 [Example 132, (1R,2R)-N-(1-cyanocyclopropyl)-2-(5-(4-(1,1-dioxidothiomorpho-lino)phenyl)-2-(6-(trifluoromethyl)pyridin-2-yl)thiazol-4-yl)cyclohexane-carboxamide] | 2340 | 1.8
N#CC1(NC(=O)[C@@H]2CCCC[C@H]2c2nc(-c3cncc(F)c3)sc2-c2ccc(N3CCS(=N)(=O)CC3)cc2)CC1 [Example 135, (1R,2R)-N-(1-cyanocyclopropyl)-2-(2-(5-fluoropyridin-3-yl)-5-(4-(1-imino-1-oxidothiomorpholino)phenyl)thiazol-4-yl)cyclohexane-carboxamide] | 1560 | 1.2
N#CC1(NC(=O)[C@@H]2CCCC[C@H]2c2nc(-c3ccc(F)cn3)sc2-c2ccc(N3CCS(=N)(=O)CC3)cc2)CC1 [Example 136, (1R,2R)-N-(1-cyanocyclopropyl)-2-(2-(5-fluoropyridin-2-yl)-5-(4-(1-imino-1-oxidothiomorpholino)phenyl)thiazol-4-yl)cyclohexane-carboxamide] | 1660 | 1.9
CN=S1(=O)CCN(c2ccc(-c3sc(-c4cncc(F)c4)nc3[C@@H]3CCCC[C@H]3C(=O)NC3(C#N)CC3)cc2)CC1 [Example 138, (1R,2R)-N-(1-cyanocyclopropyl)-2-(2-(5-fluoropyridin-3-yl)-5-(4-(1-(methylimino)-1-oxidothiomorpholino)phenyl)thiazol-4-yl)cyclohexane-carboxamide] | 2130 | 1.9

Continued, values first:

IC50 (human cathepsin F) [nM] | IC50 (human cathepsin K) [nM] | SMILES
≥ 10000 | 25.5 | C[C@H](C#N)NC(=O)[C@@H]1C[C@@H](F)CC[C@H]1c1nc(-c2ccc(F)cn2)sc1-c1ccc(N2CCS(=O)(=O)CC2)cc1 [Example 129, (1R,2R,5S)-N-((R)-1-cyanoethyl)-2-(5-(4-(1,1-dioxidothiomorpho-lino)phenyl)-2-(5-fluoropyridin-2-yl)thiazol-4-yl)-5-fluorocyclohexane-carboxamide]
≥ 10000 | 4.9 | CC1(c2nc([C@@H]3CCCC[C@H]3C(=O)NC3(C#N)CC3)c(-c3ccc(N4CCS(=O)(=O)CC4)cc3)s2)CCOCC1 [Example 133, (1R,2R)-N-(1-cyanocyclopropyl)-2-(5-(4-(1,1-dioxidothiomorpho-lino)phenyl)-2-(4-methyltetrahydro-2H-pyran-4-yl)thiazol-4-yl)cyclohexane-carboxamide]
2750 | 3.3 | CN=S1(=O)CCN(c2ccc(-c3sc(-c4ccc(F)cn4)nc3[C@@H]3CCCC[C@H]3C(=O)NC3(C#N)CC3)cc2)CC1 [Example 139, (1R,2R)-N-(1-cyanocyclopropyl)-2-(2-(5-fluoropyridin-2-yl)-5-(4-(1-(methylimino)-1-oxidothiomorpholino)phenyl)thiazol-4-yl)cyclohexane-carboxamide]
